The values below come from patent US5707985A, “Naphthyl-, quinolyl- and isoquinolyl- sulfonamide derivatives as cell adhesion modulators” (Tanabe Seiyaku Co. Ltd., priority 1995, dated 1998).

Data set [1] addresses T1, interaction between ICAM-1 and LFA-1 (Homo sapiens, UniProt P05107+P20701).
T1 construct: endogenous in cells; host or cells: JY (human B cell line) for LFA-1; TNF-alpha stimulated HUVEC (Clonetics) for ICAM-1
The experiment in a line: Adhesion of JY cells to TNF-α stimulated human endothelial cells (JY-EC). The format is cell-based. The following applies: for IC50: JY cells on TNF-α stimulated human endothelial cells, 30 minutes at 37° C., read-out: JY-EC IC50 (concentration at which adhesion is inhibited to 50% of control level). The source says:
In order to establish the pharmacological properties of the compounds of formula (I) as a method of treatment for immuno-inflammatory disease in a patient suffering therefrom--such diseases being for the most part, but not limited exclusively to, graft rejection, ischemia reperfusion, asthma/allergy, delayed type hypersensitivity and AIDS--an in vitro assay was used to determine the effect of the compounds of the present invention on β2 mediated adhesion. Because human endothelial cells (EC's) express low levels of ICAM-1 on their surface and stimulation with TNF-α increases its expression, adhesion of lymphocytes can be measured following the principal assay design as described below for the human B cell line JY.
A. Cell Adhesion to Stimulated Endothelial Cells
Human umbilical vein endothelial cells (HUVEC) were purchased from Clonetics (San Diego, Calif.) at passage number 2. The cells were growth on 0.5% porcine skin gelatin pre-coated flasks (Sigma, St. Louis, Mo.) in EGM-UV media (Clonetics, San Diego, Calif.) supplemented with 10% fetal bovine serum. Cells are re-fed every 2-3 days, reaching confluence by day 4 to 6. […] The endothelial cells are not used following passage 7. Endothelial cells are grown to confluency in 96-well micro-titer assay plate.
The human B cell line JY was cultured in RPMI media containing 10% fetal calf serum at 37° C. in a humidified CO2 atmosphere. JY cells are loaded with the fluorescent dye indicator BCECF as follows: JY cells are washed twice with HBSS and cells are then re-suspended in HBSS at 5×10^6 cells/ml; BCECF-AM (Molecular Probes), stock concentration=1 mg/ml in DMSO, is added to the JY cells to a final concentration of 2 μg/ml; cells are incubated in the dark at 37° C. for 30-45 minutes; washed twice with HBSS and used in the assay.
The compounds presented in this invention are typically dissolved in 2.5 mg HSA/ml DME at four times the assay concentration and pH adjusted with 7.5% Na bicarbonate as needed. A confluent monolayer of human EC's in microtiter plates is stimulated with 50 U/ml TNF-α for 20 hours, and on the next day washed twice with DMEM-HSA before use. The EC's may be fixed by treatment with 3% paraformaldehyde. The assay plate is placed on ice, and test compound is added to quadruplicate wells, then all wells received 2.5×10^5 labeled JY cells and an optional stimulus (e.g. phorbol ester). Plates are incubated for 30 minutes at 37° C. in a CO2 incubator. Plates are washed four times with 100 μl PBS/well and the fluorescence of the adherent cells is measured using a fluorescence reader. Fluorescence in each well is measured as Arbitrary Fluorescence Units and percent adhesion in the absence of peptide is adjusted to 100% and the percent adhesion in the presence of peptides is calculated. Inhibitory concentrations (IC50) are determined based on 100% adhesion of cells that were incubated in the absence of drugs. Stimulation of protein kinase C by phorbol esters such as […] (PMA) increases the observed adhesion approximately 5-fold. This PMA induced adhesion is 100% blocked by anti-LFA-1 or anti-CD18 antibodies and about 75-80% by anti-ICAM-1 antibodies, while it is unaffected by antibodies to Mac-1, α4 or control antibodies. Thus, this assay measures preferentially the interaction between ICAM-1 and LFA-1.

A further data set relates to U937 cells. The format is cell-based. The source says:
(§1) The activity in the assay was not due to cytotoxic activity of the compounds.

The test system of another data set is JY cells. As to the kind of experiment: Proliferation of JY cells (cytotoxicity evaluation). The class given is cell-based, human.
Source text: as §1

Another data set relates to rhinovirus. The following applies: Martin, S. D. et al.; cited from earlier work.

Read-outs that look alike come from different tables or passages of the source.

T1 sequence (P20701 26-1170): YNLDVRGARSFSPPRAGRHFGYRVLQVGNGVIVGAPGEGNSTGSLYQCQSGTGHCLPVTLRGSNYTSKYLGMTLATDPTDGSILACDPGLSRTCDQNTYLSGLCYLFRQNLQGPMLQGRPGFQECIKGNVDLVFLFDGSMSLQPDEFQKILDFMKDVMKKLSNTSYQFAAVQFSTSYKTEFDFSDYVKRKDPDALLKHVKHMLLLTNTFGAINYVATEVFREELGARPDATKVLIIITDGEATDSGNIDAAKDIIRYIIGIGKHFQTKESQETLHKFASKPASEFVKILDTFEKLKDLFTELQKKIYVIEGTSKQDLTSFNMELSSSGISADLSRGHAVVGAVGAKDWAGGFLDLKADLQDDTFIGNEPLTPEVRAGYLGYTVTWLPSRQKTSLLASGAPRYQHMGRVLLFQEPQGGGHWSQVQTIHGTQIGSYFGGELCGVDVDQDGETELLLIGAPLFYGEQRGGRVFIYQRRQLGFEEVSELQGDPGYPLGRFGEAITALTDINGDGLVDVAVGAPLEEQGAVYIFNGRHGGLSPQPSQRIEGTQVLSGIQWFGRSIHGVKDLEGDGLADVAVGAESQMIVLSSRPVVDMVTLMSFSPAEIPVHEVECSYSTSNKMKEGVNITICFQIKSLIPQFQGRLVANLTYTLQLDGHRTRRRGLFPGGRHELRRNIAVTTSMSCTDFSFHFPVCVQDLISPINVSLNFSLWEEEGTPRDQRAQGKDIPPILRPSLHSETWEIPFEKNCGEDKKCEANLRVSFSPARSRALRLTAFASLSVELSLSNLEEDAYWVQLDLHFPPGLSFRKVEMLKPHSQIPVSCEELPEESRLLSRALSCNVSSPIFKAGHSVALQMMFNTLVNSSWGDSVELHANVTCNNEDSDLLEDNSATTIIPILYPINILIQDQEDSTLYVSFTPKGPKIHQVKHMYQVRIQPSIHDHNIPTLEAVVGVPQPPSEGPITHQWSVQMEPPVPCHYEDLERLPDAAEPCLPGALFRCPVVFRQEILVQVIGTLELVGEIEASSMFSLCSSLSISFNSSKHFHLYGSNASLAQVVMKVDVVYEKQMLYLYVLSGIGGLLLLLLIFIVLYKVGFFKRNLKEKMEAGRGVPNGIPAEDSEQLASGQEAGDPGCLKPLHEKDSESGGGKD
T1 sequence (P05107 23-769): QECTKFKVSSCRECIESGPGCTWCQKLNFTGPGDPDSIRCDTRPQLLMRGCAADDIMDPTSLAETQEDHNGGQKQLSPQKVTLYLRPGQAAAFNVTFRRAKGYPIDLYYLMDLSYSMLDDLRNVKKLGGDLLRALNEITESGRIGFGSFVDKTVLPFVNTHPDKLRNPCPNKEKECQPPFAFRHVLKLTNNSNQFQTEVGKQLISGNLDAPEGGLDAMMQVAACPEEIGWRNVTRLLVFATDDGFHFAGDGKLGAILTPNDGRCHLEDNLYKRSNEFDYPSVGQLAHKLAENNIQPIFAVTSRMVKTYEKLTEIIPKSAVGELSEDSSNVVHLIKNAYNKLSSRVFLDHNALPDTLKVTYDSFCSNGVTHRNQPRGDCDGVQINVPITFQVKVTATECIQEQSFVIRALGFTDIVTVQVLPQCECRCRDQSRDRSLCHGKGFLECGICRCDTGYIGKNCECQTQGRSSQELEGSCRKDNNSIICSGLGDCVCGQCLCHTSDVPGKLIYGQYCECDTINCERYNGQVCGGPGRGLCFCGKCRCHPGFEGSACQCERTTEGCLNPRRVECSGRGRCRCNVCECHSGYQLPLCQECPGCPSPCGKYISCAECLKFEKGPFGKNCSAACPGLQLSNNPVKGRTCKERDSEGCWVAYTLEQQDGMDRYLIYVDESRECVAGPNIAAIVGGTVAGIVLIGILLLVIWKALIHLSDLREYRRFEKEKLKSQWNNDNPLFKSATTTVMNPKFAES

Take `CCCCCCCCCCCCCC(=O)O[C@@H]1[C@@H](C)[C@@]2(O)[C@@H](C=C(CO)C[C@]3(O)C(=O)C(C)=C[C@@H]23)[C@@H]2C(C)(C)[C@]12OC(C)=O` [13,14-phorbol myristate acetate (PMA), 13,14-phorbol myristate acetate, reference compound]: the “increase of observed adhesion” value in data set [1] (stimulation of protein kinase C by PMA) is reported as “approximately 5 fold”. `O=S(=O)(NC12CC3CC(CC(C3)C1)C2)c1ccc2c(Cl)cccc2c1` [Example 3, 1-(5-Chloro-2-naphthylsulfonyl)-1-aminoadamantane]: the IC50 in data set [1] was 3 µM. For the same molecule, the “inhibition of proliferation of U937 cells” value with U937 cells was “did not inhibit the proliferation of JY cells or U937 cells”. Further, the “inhibition of proliferation of JY cells” value in the data set on JY cells (at concentrations active in the adhesion assay, measured after 20 hours) is reported as “did not inhibit the proliferation of JY cells”. Turning to `O=S(=O)(c1ccc2c(Cl)cccc2c1)N1CC2CCC(CC2)C1` [Example 5, 3-(5-Chloro-2-naphthylsulfonyl)-3-azabicyclo[3.2.2]nonane], the IC50 in data set [1] stood at 0.5 µM. Moreover, in the data set on U937 cells, the “inhibition of proliferation of U937 cells” value is reported as “did not inhibit the proliferation of JY cells or U937 cells”. Further, the “inhibition of proliferation of JY cells” value in the data set on JY cells is recorded as “did not inhibit the proliferation of JY cells”. As to `CC(=O)Oc1cccc2cc(S(=O)(=O)NC34CC5CC(CC(C5)C3)C4)ccc12` [Example 15, 1-(5-Acetoxy-2-naphthylsulfonyl)-1-aminoadamantane], in data set [1], the IC50 is 56 µM. As to `O=S(=O)(c1ccc2c(Cl)cccc2c1)N1CC2CCC(C2)C1` [Example 17, 3-(5-Chloro-2-naphthylsulfonyl)-3-azabicyclo[3.2.1]-octane], the IC50 in data set [1] amounted to 15 µM. As to `O=S(=O)(c1ccc2c(Cl)cccc2c1)N1CC2CC3CC(C2)CC1C3` [Example 18, 4-(5-Chloro-2-naphthylsulfonyl)-4-azahomoadamantane], in data set [1], the IC50 came to 0.25 µM. Turning to `O=S(=O)(c1ccc2c(Cl)cccc2c1)N1CC2CC1CS2` (stereo not drawn) [Example 20, 5-(5-Chloro-2-naphthylsulfonyl-2-thia-5-azabicyclo-2.2.1]heptane], the IC50 in data set [1] stood at 6 µM. On the same count and under the same terms, the result for `O=S(=O)(c1ccc2c(Cl)cccc2c1)N1CC2CC1CO2` (stereo not drawn) [Example 21, 5-(5-Chloro-2-naphthylsulfonyl)-2-oxa-5-azabicyclo-[2.2.1]heptane] reads 86 µM. In the case of `O=C(O)C12CC3CC(CC(NS(=O)(=O)c4ccc5c(Cl)cccc5c4)(C3)C1)C2` [Example 24, 1-(5-Chloro-2-naphthylsulfonyl)-1-amino-3-adamantane-carboxylic acid], the IC50 in data set [1] was determined as 136 µM.

For `O=S(=O)(c1ccc2ncccc2c1)N1CC2CCC(CC2)C1` [Example 29, 3-(6-Quinolinesulfonyl)-3-azabicyclo[3.2.2]nonane], the IC50 in data set [1] worked out at 8 µM.

Take `O=S(=O)(NC12CC3CC(CC(C3)C1)C2)c1ccc2ncccc2c1` [Example 30, 1-(6-Quinolinesulfonyl)-1-aminoadamantane]: the IC50 in data set [1] was 23 µM.

On to `O=S(=O)(c1ccc2ncccc2c1)N1CC2CC3CC(C2)CC1C3` [Example 31, 4-(6-Quinolinesulfonyl)-4-azahomoadamantane], for which, in data set [1], the IC50 was found to be 5 µM.

For the molecule `Nc1cccc2cc(S(=O)(=O)N3CC4CCC(CC4)C3)ccc12` [Example 35, 3-(5-Amino-2-naphthylsulfonyl)-3-azabicyclo[3.2.2]nonane], the IC50 in data set [1] is 13.6 µM. `COc1ccc(S(=O)(=O)N2CC3CCC(CC3)C2)c2ccccc12` [Example 44, 3-(4-Methoxy-1-naphthylsulfonyl)-3-azabicyclo[3.2.2]nonane]: the IC50 in data set [1] stood at 1.6 µM. Regarding `O=S(=O)(c1cc(OCc2cccnc2)c2ccccc2c1)N1CC2CCC(CC2)C1` [Example 54, 3-[1-(3-Pyridinylmethoxy)-3-naphthylsulfonyl]-3-azabicyclo[3.2.2]nonane], the IC50 in data set [1] is 4.4 µM. Still for that read-out and setting: in the case of `O=S(=O)(c1cc(OCc2cccnc2)c2ccccc2c1)N1CC2CC3CC(C2)CC1C3` [Example 55, 4-[1-(3-Pyridinylmethoxy)-3-naphthylsulfonyl]-4-azahomoadamantane] it was 2.1 µM.

B1: soluble ICAM-1: soluble ICAM-1, specific inhibitor of rhinovirus infection (protein, UniProt P05362 28-480, looked up)
extracellular domain: QTSVSPSKVILPRGGSVLVTCSTSCDQPKLLGIETPLPKKELLLPGNNRKVYELSNVQEDSQPMCYSNCPDGQSTAKTFLTVYWTPERVELAPLPSWQPVGKNLTLRCQVEGGAPRANLTVVLLRGEKELKREPAVGEPAEVTTTVLVRRDHHGANFSCRTELDLRPQGLELFENTSAPYQLQTFVLPATPPQLVSPRVLEVDTQGTVVCSLDGLFPVSEAQVHLALGDQRLNPTVTYGNDSFSAKASVSVTAEDEGTQRLTCAVILGNQSQETLQTVTIYSFPAPNVILTKPEVSEGTEVTVKCEAHPRAKVTLNGVPAQPLGPRAQLLLKATPEDNGRSFSCSATLEVAGQLIHKNQTRELRVLYGPRLDERDCPGNWTWPENSQQTPMCQAWGNPLPELKCLKDGTFPLPIGESVTVTRDLEGTYLCRARSTQGEVTRKVTVNVLSPRYE
modifications: extracellular domain
Regarding B1, the “inhibition of rhinovirus infection” value in the data set with rhinovirus was “act as specific inhibitor of rhinovirus infection”.
